In publication PMC7736868, “Fluorescent ligands for dopamine D2/D3 receptors” (Scientific Reports, 2020):

How the values were obtained:
[1] = target: T1, secNluc-D3R (UniProt P35462+Q9GV45, A31E/A60N/A81I/F95D/I117V/K70R/L54V/L99Q/M102K/N193R/P142E/Q151K/Q38R/Q45L/V71I/Y165I); test: Membrane-based NanoBRET saturation binding; conditions: membranes from HEK293T cells expressing secNluc-D3R; KD ± SEM
Procedure: . After addition of furimazine (1:5,000, final volume 35 µL), and 5 min incubation at room temperature in the dark, BRET readings were obtained using a CLARIOstar plate reader equipped with a 475/30 nm donor together with a 535/30 nm (for 10a) or 620/30 nm (for 10b) acceptor emission filter. […]. Kinetic assays were monitored at room temperature and minimal possible cycle time of the CLARIOstar was used for each measurement. Data was fitted to one phase association and dissociation equations in PRISM6.0 to determine the kinetic constants. In competition binding experiments, membranes were incubated with serial dilutions of unlabeled ligands and the fluorescent ligand 10a (10 or 100 nM) for 90 min at 37 °C. Addition of furimazine (1:5,000) and BRET measurements were carried out as described above. Data analysis was performed using the one site—fit Ki equation in PRISM6.0 to determine the inhibition constants (Ki) of the unlabeled ligands.
Supplementary Fig. 4. NanoBRET saturation curves obtained with ligands 10a,b and membranes from HEK293T expressing secNluc- D3R. […]
calculated as the difference between total and non- specific binding . BRET was measured after 90 min incubation at 37 °C and represents mean ± SD of an individual representative out of 3 – 4 independent experiments, with each condition in triplicate. […]

[2] = target: T1, secNluc-D3R; test: Live-cell NanoBRET saturation binding, HEK293T cells
Procedure: Figure 5 NanoBRET saturation curves for the fluorescent ligands 10a-c. Saturation binding experiments were performed with live HEK293T cells expressing secNluc-D3R and the fluorescent ligands 10a, 10b and 10c, comprising a trifluorethyl-rhodamine derivative, a Cy3B and an Alexa488 fluorophore, respectively. […] Data points show mean ± SEM of one representative out of n = 5 (for 10a) or n = 4 (for 10b,c) experiments, with each condition carried out in triplicate. The netBRET signal was calculated as the difference between total BRET and the signal obtained in the absence of a fluorescent ligand.
For whole cell NanoBRET saturation assays, HEK293T cells were transfected with secNluc-D3R employing Mirus TransIT-293 (3:1 reagent to DNA ratio). After 24 h at 37 °C, 5% CO2, cells were detached using Versene and transferred to white, F-bottom 384-well plates at a density of 2,500 cells/well and incubated for another 24 h at 37 °C, 5% CO2. Cells were washed with PBS and incubated for 30 min at 37 °C with 5% FBS in DMEM without phenol red, before the fluorescent ligands (5 µL, diluted into DMEM without phenol red with 5% FBS from a 1 mM DMSO-stock) were added. […] After 1 h incubation with the ligands at 37 °C, furimazine (Promega, final dilution 1:500 to 1:2,500) was added, followed by a 5 min incubation at room temperature in the dark. BRET was measured as the ratio of acceptor fluorescence and donor luminescence employing a CLARIOstar microplate reader equipped with 475/30 nm and 535/30 or 580/30 emission filters, respectively. Total, non-specific and specific binding were analyzed employing the algorithms for one-site saturation binding implemented in PRISM6.0 or 8.0.

[3] = read-out: KD NanoBRET saturation; live HEK293T cells expressing secNluc-D3R; KD ± SEM

T1 sequence (Q9GV45+P35462 fused with the stated changes): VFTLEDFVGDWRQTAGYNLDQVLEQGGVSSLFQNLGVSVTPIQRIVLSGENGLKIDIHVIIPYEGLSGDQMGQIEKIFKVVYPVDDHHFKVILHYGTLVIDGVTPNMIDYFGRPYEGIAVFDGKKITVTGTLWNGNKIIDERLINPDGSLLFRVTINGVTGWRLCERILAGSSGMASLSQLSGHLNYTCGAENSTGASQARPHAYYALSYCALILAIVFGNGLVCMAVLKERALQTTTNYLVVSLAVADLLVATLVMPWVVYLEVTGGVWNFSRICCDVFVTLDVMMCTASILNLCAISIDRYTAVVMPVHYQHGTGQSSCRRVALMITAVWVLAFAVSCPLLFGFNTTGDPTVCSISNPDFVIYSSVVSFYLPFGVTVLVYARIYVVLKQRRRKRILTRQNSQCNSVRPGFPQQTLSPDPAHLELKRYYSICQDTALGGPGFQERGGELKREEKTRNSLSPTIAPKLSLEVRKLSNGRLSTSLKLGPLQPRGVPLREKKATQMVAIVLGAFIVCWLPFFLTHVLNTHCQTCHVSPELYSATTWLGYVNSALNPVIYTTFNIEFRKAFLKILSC

| Compound | Kd [1] | Kd ([2]; live HEK293T cells expressing secNluc-D3R; KD ± SEM; read-out: KD NanoBRET saturation) | Kd [2, 3] |
| --- | --- | --- | --- |
| CCCN(CCCCc1cn(-c2ccc(CNC(=O)c3ccc(-c4c5ccc(=NCC(F)(F)F)cc-5oc5cc(NCC(F)(F)F)ccc45)c(C(=O)O)c3)cc2)nn1)C1Cc2ccccc2C1 [10a] | 0.9 ± 0.14 nM | 0.72 ± 0.07 nM |  |
| CCCN(CCCCc1cn(-c2ccc(C(=O)NCCCNC(=O)Cc3ccc4c(c3)C(C)(C)C3=C5C=C6C7=[N+](CCC6OC5CCN34)c3ccc(S(=O)(=O)[O-])cc3C7(C)C)cc2)nn1)C1Cc2ccccc2C1 (centres unmarked) [10b] | 11.3 ± 1.6 nM |  | 12.1 ± 1.7 nM |
| CCCN(CCCCc1cn(-c2ccc(C(=O)NCCCNC(=O)c3ccc(-c4c5ccc(=N)c(S(=O)(=O)O)c-5oc5c(S(=O)(=O)O)c(N)ccc45)c(C(=O)O)c3)cc2)nn1)C1Cc2ccccc2C1 [10c] |  |  | 0.72 ± 0.08 nM |
